Measured values published in patent US20140323300A1, “HERBICIDAL COMPOUNDS” (SYNGENTA LIMITED, priority 2011, published 2014).

Tests used:
[1] = test system: Echinochloa crus-galli (ECHCG); experiment: Post-emergence glasshouse herbicide test; assay type: in vivo; conditions: post-emergence (sprayed after 8 days cultivation), 1000 g/h, evaluated after 13 days, five point scale
How it was run: (§1)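 Damage was rated 13 days after treatment on a five-point scale (1 = 0–19%, 5 = 80–100%). The compound, formulated in 50:50 acetone/water with 0.5% Tween 20, was sprayed at 1000 g/h on pots one day (pre) or 8 days (post) after sowing, kept in a glasshouse at 24/16° C, 14 h light, 65% humidity.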

[2] = test system: Ipomoea hederacea (IPOHE); experiment: Post-emergence glasshouse herbicide test; assay type: in vivo; conditions: post-emergence (sprayed after 8 days cultivation), 1000 g/h, evaluated after 13 days, five point scale
How it was run: as §1

Setaria faberi (SETFA) [3] = experiment: Post-emergence glasshouse herbicide test; assay type: in vivo; conditions: post-emergence (sprayed after 8 days cultivation), 1000 g/h, evaluated after 13 days, five point scale
How it was run: as §1

[4] = test system: Alopecurus myosuroides (ALOMY); experiment: Post-emergence glasshouse herbicide test; assay type: in vivo; conditions: post-emergence (sprayed after 8 days cultivation), 1000 g/h, evaluated after 13 days, five point scale
How it was run: as §1

Solanum nigrum (SOLNI) [5] = experiment: Post-emergence glasshouse herbicide test; assay type: in vivo; conditions: post-emergence (sprayed after 8 days cultivation), 1000 g/h, evaluated after 13 days, five point scale
How it was run: as §1

[6] = test system: Amaranthus retoflexus (AMARE); experiment: Post-emergence glasshouse herbicide test; assay type: in vivo; conditions: post-emergence (sprayed after 8 days cultivation), 1000 g/h, evaluated after 13 days, five point scale
How it was run: as §1

[7] = test system: Echinochloa crus-galli (ECHCG); experiment: Pre-emergence glasshouse herbicide test; assay type: in vivo; conditions: pre-emergence (sprayed after one day cultivation), 1000 g/h, evaluated after 13 days, five point scale
How it was run: as §1

[8] = test system: Ipomoea hederacea (IPOHE); experiment: Pre-emergence glasshouse herbicide test; assay type: in vivo; conditions: pre-emergence (sprayed after one day cultivation), 1000 g/h, evaluated after 13 days, five point scale
How it was run: as §1

Setaria faberi (SETFA) [9] = experiment: Pre-emergence glasshouse herbicide test; assay type: in vivo; conditions: pre-emergence (sprayed after one day cultivation), 1000 g/h, evaluated after 13 days, five point scale
How it was run: as §1

[10] = test system: Alopecurus myosuroides (ALOMY); experiment: Pre-emergence glasshouse herbicide test; assay type: in vivo; conditions: pre-emergence (sprayed after one day cultivation), 1000 g/h, evaluated after 13 days, five point scale
How it was run: as §1

Solanum nigrum (SOLNI) [11] = experiment: Pre-emergence glasshouse herbicide test; assay type: in vivo; conditions: pre-emergence (sprayed after one day cultivation), 1000 g/h, evaluated after 13 days, five point scale
How it was run: as §1

[12] = test system: Amaranthus retoflexus (AMARE); experiment: Pre-emergence glasshouse herbicide test; assay type: in vivo; conditions: pre-emergence (sprayed after one day cultivation), 1000 g/h, evaluated after 13 days, five point scale
How it was run: as §1

**Q.** Which results are given for `C=C(C)C1C=NN(c2ccc(C(F)(F)F)cc2S(C)(=O)=O)C(=O)C1=O` (stereo not shown) [Compound 1.039, 4-Isopropenyl-1-[2-methylsulfonyl-4-(trifluoromethyl)phenyl]-4H-pyridazine-5,6-dione]?
**A.** percentage damage caused to the plant, POST Application ECHCG [1]: 5 (5=80-100%); percentage damage caused to the plant, POST Application IPOHE [2]: 5 (5=80-100%); percentage damage caused to the plant, POST Application SETFA (Setaria faberi (SETFA) [3]): 5 (5=80-100%); percentage damage caused to the plant, POST Application ALOMY [4]: 5 (5=80-100%); percentage damage caused to the plant, POST Application SOLNI (Solanum nigrum (SOLNI) [5]): 5 (5=80-100%); percentage damage caused to the plant, POST Application AMARE [6]: 5 (5=80-100%); percentage damage caused to the plant, PRE Application ECHCG [7]: 5 (5=80-100%); percentage damage caused to the plant, PRE Application IPOHE [8]: 5 (5=80-100%); percentage damage caused to the plant, PRE Application SETFA (Setaria faberi (SETFA) [9]): 5 (5=80-100%); percentage damage caused to the plant, PRE Application ALOMY [10]: 5 (5=80-100%); percentage damage caused to the plant, PRE Application SOLNI (Solanum nigrum (SOLNI) [11]): 5 (5=80-100%); percentage damage caused to the plant, PRE Application AMARE [12]: 5 (5=80-100%); melting point: 144 to 147 °C

**Q.** With `O=c1c(O)c(Cl)cnn1-c1ccc(C(F)(F)F)cc1Cl` [Compound 1.002, 5-chloro-2-[2-chloro-4-(trifluoromethyl)phenyl]-4-hydroxy-pyridazin-3-one] as the compound, how does the “percentage damage caused to the plant, POST Application ECHCG” value [1] read?
**A.** Its value is 5 (5=80-100%).

**Q.** And the “percentage damage caused to the plant, POST Application IPOHE” value [2]?
**A.** The value was 5 (5=80-100%).

**Q.** And the “percentage damage caused to the plant, POST Application SETFA” value (Setaria faberi (SETFA) [3])?
**A.** The value was 5 (5=80-100%).

**Q.** And the “percentage damage caused to the plant, POST Application ALOMY” value [4]?
**A.** The value was 1 (1=0-19%).

**Q.** And the “percentage damage caused to the plant, POST Application SOLNI” value (Solanum nigrum (SOLNI) [5])?
**A.** Its value is 5 (5=80-100%).

**Q.** What about the “percentage damage caused to the plant, POST Application AMARE” value [6] of the same compound?
**A.** Its value is 5 (5=80-100%).

**Q.** What about the “percentage damage caused to the plant, PRE Application ECHCG” value [7] of the same compound?
**A.** The value was 5 (5=80-100%).

**Q.** What about the “percentage damage caused to the plant, PRE Application IPOHE” value [8] of the same compound?
**A.** The value was 4 (4=60-79%).

**Q.** What about the “percentage damage caused to the plant, PRE Application SETFA” value (Setaria faberi (SETFA) [9]) of the same compound?
**A.** Its value is 4 (4=60-79%).

**Q.** What about the “percentage damage caused to the plant, PRE Application ALOMY” value [10] of the same compound?
**A.** Its value is 2 (2=20-39%).

**Q.** And the “percentage damage caused to the plant, PRE Application SOLNI” value (Solanum nigrum (SOLNI) [11])?
**A.** The value was 5 (5=80-100%).

**Q.** And the “percentage damage caused to the plant, PRE Application AMARE” value [12]?
**A.** The value was 5 (5=80-100%).

**Q.** With `CCc1ccc(-n2ncc(CC)c(O)c2=O)c(S(C)(=O)=O)c1` [Compound 1.038] as the compound, how does the “percentage damage caused to the plant, POST Application ECHCG” value [1] read?
**A.** The value was 5 (5=80-100%).

**Q.** What about the “percentage damage caused to the plant, POST Application IPOHE” value [2] of the same compound?
**A.** Its value is 5 (5=80-100%).

**Q.** What about the “percentage damage caused to the plant, POST Application SETFA” value (Setaria faberi (SETFA) [3]) of the same compound?
**A.** The value was 5 (5=80-100%).

**Q.** What about the “percentage damage caused to the plant, POST Application ALOMY” value [4] of the same compound?
**A.** Its value is 4 (4=60-79%).

**Q.** What about the “percentage damage caused to the plant, POST Application SOLNI” value (Solanum nigrum (SOLNI) [5]) of the same compound?
**A.** The value was 5 (5=80-100%).

**Q.** What about the “percentage damage caused to the plant, POST Application AMARE” value [6] of the same compound?
**A.** The value was 5 (5=80-100%).

**Q.** And the “percentage damage caused to the plant, PRE Application ECHCG” value [7]?
**A.** Its value is 5 (5=80-100%).

**Q.** And the “percentage damage caused to the plant, PRE Application IPOHE” value [8]?
**A.** The value was 5 (5=80-100%).

**Q.** What about the “percentage damage caused to the plant, PRE Application SETFA” value (Setaria faberi (SETFA) [9]) of the same compound?
**A.** Its value is 5 (5=80-100%).

**Q.** What about the “percentage damage caused to the plant, PRE Application ALOMY” value [10] of the same compound?
**A.** Its value is 4 (4=60-79%).

**Q.** What about the “percentage damage caused to the plant, PRE Application SOLNI” value (Solanum nigrum (SOLNI) [11]) of the same compound?
**A.** The value was 5 (5=80-100%).

**Q.** What about the “percentage damage caused to the plant, PRE Application AMARE” value [12] of the same compound?
**A.** Its value is 5 (5=80-100%).

**Q.** What does the source list for `CSc1cnn(-c2ccc(C(F)(F)F)nc2C)c(=O)c1O` [Compound 1.025]?
**A.** percentage damage caused to the plant, POST Application ECHCG [1]: 5 (5=80-100%); percentage damage caused to the plant, POST Application IPOHE [2]: 5 (5=80-100%); percentage damage caused to the plant, POST Application SETFA (Setaria faberi (SETFA) [3]): 5 (5=80-100%); percentage damage caused to the plant, POST Application ALOMY [4]: 2 (2=20-39%); percentage damage caused to the plant, POST Application SOLNI (Solanum nigrum (SOLNI) [5]): 5 (5=80-100%); percentage damage caused to the plant, POST Application AMARE [6]: 5 (5=80-100%); percentage damage caused to the plant, PRE Application ECHCG [7]: 5 (5=80-100%); percentage damage caused to the plant, PRE Application IPOHE [8]: 5 (5=80-100%); percentage damage caused to the plant, PRE Application SETFA (Setaria faberi (SETFA) [9]): 5 (5=80-100%); percentage damage caused to the plant, PRE Application ALOMY [10]: 2 (2=20-39%); percentage damage caused to the plant, PRE Application SOLNI (Solanum nigrum (SOLNI) [11]): 5 (5=80-100%); percentage damage caused to the plant, PRE Application AMARE [12]: 5 (5=80-100%)
